Test results reported in publication PMC4640093, “Lipophilic prodrugs of nucleoside triphosphates as biochemical probes and potential antivirals” (Nature Communications, 2015).

What was measured:
[1] = test system: CD4+ T-cell (CEM); experiment: Cytotoxicity: inhibition of CEM cell proliferation; assay type: cell-based, human; conditions: 50% cytostatic concentration, mean±s.d., n=2–3
[2] = Chemical hydrolysis in PBS, pH 7.3; assay type: physicochemical; conditions: PBS pH 7.3, 37 °C; for t1/2(1) PBS, pH=7.3: removal of first masking unit (half-lives of 3); for t1/2(2) PBS, pH=7.3: second hydrolysis step, half-lives of intermediate 4 to give d4TTP 19
Experimental: Stock solutions (50 mM in DMSO-d6) of the appropriate compounds were prepared. After dilution of 11 μl with 100 μl Millipore water and 189 μl DMSO-d6 to 1.9 mM hydrolysis solutions the reaction was started by the addition of 300 μl PBS (50 mM, pH 7.3). The solution was incubated at 37 °C in a thermomixer. An initial aliquot (25 μl) was taken directly and analysed by analytical HPLC at 265–266 nm. Further aliquots were taken for monitoring the kinetic hydrolysis. The exponential decay curves (pseudo-first order) based on absolute integral values were calculated with commercially available software (OriginPro 9.0G) and yielded the half-lives t1/2(1) and t1/2(2) of the prodrugs via one determination.

[3] = test system: HIV-2(ROD); experiment: Anti-HIV activity assay, HIV-2 in TK-deficient CEM/TK− cells; assay type: cell-based; conditions: thymidine kinase-deficient CEM/TK− cells; mean±s.d., n=2–3
Experimental: (§1) Inhibition of HIV-1(IIIB)- and HIV-2(ROD)-induced cytopathicity in wild-type CEM/0 and TK-deficient CEM/TK^− cell cultures was measured in microtitre 96-well plates containing ∼3 × 10^5 CEM cells ml^−1 infected with 100 CCID50 of HIV per millilitre and containing appropriate dilutions of the test compounds. After 4−5 days of incubation at 37 °C in a CO2-controlled humidified atmosphere, CEM giant (syncytium) cell formation was examined microscopically. The EC50 (50% effective concentration) was defined as the compound concentration required to inhibit HIV-induced giant cell formation by 50%.

[4] = test system: HIV-1(IIIB); experiment: Anti-HIV activity assay, HIV-1 in wild-type CEM/0 cells; assay type: cell-based; conditions: HIV-induced giant cell formation, mean±s.d., n=2–3
Experimental: as §1

[5] = test system: HIV-2(ROD); experiment: Anti-HIV activity assay, HIV-2 in wild-type CEM/0 cells; assay type: cell-based; conditions: wild-type CEM cells, HIV-induced giant cell formation; mean±s.d., n=2–3; read-out: EC50 CEM HIV-2
Experimental: as §1

[6] = Enzyme-catalysed hydrolysis in CEM cell extracts; conditions: for t1/2(1) CEM: human CEM cell extract, 37 °C
Experimental: The hydrolysis mixtures were analysed by means of analytical RP-18-HPLC.
A volume of 10 μl of the appropriate 50 mM DMSO-d6 stock solution was diluted to 6.0 mM hydrolysis solution by addition of 73.3 μl DMSO-d6. Seven different samples including 10 μl water and 10 μl hydrolysis solution were prepared. The reaction was started by addition of 50 μl human CEM cell extract and the mixture was incubated at 37 °C for different time periods of hydrolysis. The work-up depended on the particular compound: (a) for 3a–f,l,m,p and 4a,e the reactions were stopped by addition of 150 μl MeOH. The solution was kept on ice for 5 min followed by centrifugation for 5 min (13,000 r.p.m.). The supernatants were filtered (Chromafil RC-20/15 MS, 0.2 μm) and stored in liquid nitrogen. (b) For 3g–i,k,n and 4j, the samples were directly frozen in liquid nitrogen. The solution was defrosted followed by ultrasonication for 10 min. After centrifugation for 5 min the supernatants were filtered (Chromafil AO-20/3, 0.2 μm) and stored at −196 °C. (c) For 3j the mixture was diluted with 70 μl THF (HPLC grade) and frozen in liquid nitrogen followed by defrosting, ultrasonication, centrifugation, filtration and stored as described for (b). Samples were defrosted and 50–80 μl were subjected to HPLC analysis.
Human CD4^+ T-lymphocyte CEM cells were grown in RPMI-1640-based cell culture medium to a final density of ∼3·10^6 cells ml^−1. Then, cells were centrifuged for 10 min at 1,250 r.p.m. at 4 °C, washed twice with cold PBS and the pellet was resuspended at 10^8 cells ml^−1 and sonicated (Hielscher Ultrasound Techn., 100% amplitude, three·times for 10 s) to destroy cell integrity. The resulting cell suspension was then centrifuged at 10,000 r.p.m. to remove cell debris, and the supernatant divided into aliquots before being frozen at −80 °C and used.

[7] = test system: pig liver esterase (PLE); experiment: Enzymatic hydrolysis with pig liver esterase (PLE) in PBS; assay type: in vitro ADME; conditions: PLE in PBS pH 7.3, 37 °C; for t1/2(1) PLE: removal of first masking unit (half-lives of 3); for t1/2(2) PLE: second hydrolysis step, half-lives of intermediate 4
Experimental: Furthermore, 140 μl of the 6.0 mM solution was diluted with 105 μl DMSO-d6 and 700 μl 50 mM PBS buffer. The reaction was started by addition of 52.5 μl of PLE in PBS buffer (3 mg ml^−1) and the mixture was incubated at 37 °C in a thermomixer. At different times, aliquots (125 μl) were taken and treated as follows: (a) for 3a–g,l,m and 4a,e the reaction was stopped by addition to 132.5 μl MeOH. […] (b) For 3h,i,k,n and 4j, the sample was directly frozen in liquid nitrogen.

SMILES | CC50 [1] | t1/2(1) PBS, pH=7.3 [2] | t1/2(2) PBS, pH=7.3 [2] | EC50 [3] | EC50 [4] | EC50 [5] | t1/2(1) CEM [6] | t1/2(1) PLE [7] | t1/2(2) PLE [7] | t1/2 in cell extracts ([6]; degradation of the nucleotide in CEM cell extracts)
CC(=O)Oc1ccc(COP(=O)(OCc2ccc(OC(C)=O)cc2)OP(=O)(O)OP(=O)(O)OC[C@@H]2C=C[C@H](n3cc(C)c(=O)[nH]c3=O)O2)cc1 [3a, γ-Bis-(4-acetyloxybenzyl)-d4TTP] | 63 ± 2 µM | 18 h | 75 h | > 10 µM | 0.43 ± 0.25 µM | 0.72 ± 0.16 µM | 0.050 h | 1.9 h | 71 h | 
CCC(=O)Oc1ccc(COP(=O)(OCc2ccc(OC(=O)CC)cc2)OP(=O)(O)OP(=O)(O)OC[C@@H]2C=C[C@H](n3cc(C)c(=O)[nH]c3=O)O2)cc1 [3b, γ-Bis-(4-propanoyloxybenzyl)-d4TTP] | 57 ± 6 µM | 17 h | 150 h | > 10 µM | 0.46 ± 0.21 µM | 1.16 ± 0.15 µM | 0.12 h | 0.42 h | 33 h | 
CCCCC(=O)Oc1ccc(COP(=O)(OCc2ccc(OC(=O)CCCC)cc2)OP(=O)(O)OP(=O)(O)OC[C@@H]2C=C[C@H](n3cc(C)c(=O)[nH]c3=O)O2)cc1 [3c, γ-Bis-(4-pentanoyloxybenzyl)-d4TTP] | 58 ± 3 µM | 22 h | 270 h | > 10 µM | 0.4 µM | 1.05 ± 0.3 µM | 0.43 h | 0.063 h | 7.7 h | 
CCCCOC(=O)N(C)CCN(C)C(=O)Oc1ccc(COP(=O)(OCc2ccc(OC(=O)N(C)CCN(C)C(=O)OCCCC)cc2)OP(=O)(O)OP(=O)(O)OCC2C=CC(n3cc(C)c(=O)[nH]c3=O)O2)cc1 (centres unmarked) [3o, γ-Bis-(4-(butyl-ethane-1,2-diylbis(methylcarbamate))-oxybenzyl)-d4TTP] |  | 27 h |  |  |  |  |  |  |  | 
CCCCCCCCOC(=O)N(C)CCN(C)C(=O)Oc1ccc(COP(=O)(OCc2ccc(OC(=O)N(C)CCN(C)C(=O)OCCCCCCCC)cc2)OP(=O)(O)OP(=O)(O)OCC2C=CC(n3cc(C)c(=O)[nH]c3=O)O2)cc1 (centres unmarked) [3p, γ-Bis-(4-(octyl-ethane-1,2-diylbis(methylcarbamate))-oxybenzyl)-d4TTP] |  | 48 h |  |  |  |  | 5.6 h |  |  | 
CCCCCCCCCCCCOC(=O)N(C)CCN(C)C(=O)Oc1ccc(COP(=O)(OCc2ccc(OC(=O)N(C)CCN(C)C(=O)OCCCCCCCCCCCC)cc2)OP(=O)(O)OP(=O)(O)OCC2C=CC(n3cc(C)c(=O)[nH]c3=O)O2)cc1 (centres unmarked) [3q, γ-Bis-(4-(dodecyl-ethane-1,2-diylbis(methylcarbamate))-oxybenzyl)-d4TTP] |  | 48 h |  |  |  |  |  |  |  | 
CC(=O)Oc1ccc(COP(=O)(O)OP(=O)(O)OP(=O)(O)OC[C@@H]2C=C[C@H](n3cc(C)c(=O)[nH]c3=O)O2)cc1 [4a, γ-Mono-(4-acetyloxybenzyl)-d4TTP] |  |  | 95 h |  |  |  | 0.040 h |  | 108 h | 
CCCCCCCCC(=O)Oc1ccc(COP(=O)(O)OP(=O)(O)OP(=O)(O)OC[C@@H]2C=C[C@H](n3cc(C)c(=O)[nH]c3=O)O2)cc1 [4e, γ-Mono-(4-nonanoyloxybenzyl)-d4TTP] |  |  | 237 h |  |  |  | 1.8 h |  | 1.5 h | 
CCCCCCCCCCCCCCCCCC(=O)Oc1ccc(COP(=O)(O)OP(=O)(O)OP(=O)(O)OC[C@@H]2C=C[C@H](n3cc(C)c(=O)[nH]c3=O)O2)cc1 [4j, γ-Mono-(4-octadecanoyloxybenzyl)-d4TTP] |  |  | 637 h |  |  |  | 4.6 h |  | 57 h | 
Cc1cn([C@H]2C=C[C@@H](COP(=O)(O)OP(=O)(O)OP(=O)(O)O)O2)c(=O)[nH]c1=O [d4TTP 19, reference compound] |  |  |  |  |  |  |  |  |  | 0.63 h
